Laboratory results: patent US12139473B2, “Substituted-N-heteroaryl compounds and uses thereof” (Bionomics Limited, priority 2019, dated 2024)

How the values were obtained:
hKv3.2 = target: T1, hKv3.2 (Homo sapiens, UniProt Q96PR1); assay: Automated patch clamp electrophysiology (Patchliner), CHO/Kv3.2 cells; type: cell-based; conditions: 10 μM compound, hKv3.2 in CHO-K1, whole-cell; for activation at 10 µM: peak current at voltage step of −10 mV vs vehicle (0.33% DMSO), read-out: Kv3.2 Activity at 10 μM Potentiation (%); for Kv3.2 Activity at 10 μM Voltage Shift (mV): voltage shift of the IV curve at V1/2
T1 construct: expressed in transfected cells
T1 sequence (Q96PR1 1-638): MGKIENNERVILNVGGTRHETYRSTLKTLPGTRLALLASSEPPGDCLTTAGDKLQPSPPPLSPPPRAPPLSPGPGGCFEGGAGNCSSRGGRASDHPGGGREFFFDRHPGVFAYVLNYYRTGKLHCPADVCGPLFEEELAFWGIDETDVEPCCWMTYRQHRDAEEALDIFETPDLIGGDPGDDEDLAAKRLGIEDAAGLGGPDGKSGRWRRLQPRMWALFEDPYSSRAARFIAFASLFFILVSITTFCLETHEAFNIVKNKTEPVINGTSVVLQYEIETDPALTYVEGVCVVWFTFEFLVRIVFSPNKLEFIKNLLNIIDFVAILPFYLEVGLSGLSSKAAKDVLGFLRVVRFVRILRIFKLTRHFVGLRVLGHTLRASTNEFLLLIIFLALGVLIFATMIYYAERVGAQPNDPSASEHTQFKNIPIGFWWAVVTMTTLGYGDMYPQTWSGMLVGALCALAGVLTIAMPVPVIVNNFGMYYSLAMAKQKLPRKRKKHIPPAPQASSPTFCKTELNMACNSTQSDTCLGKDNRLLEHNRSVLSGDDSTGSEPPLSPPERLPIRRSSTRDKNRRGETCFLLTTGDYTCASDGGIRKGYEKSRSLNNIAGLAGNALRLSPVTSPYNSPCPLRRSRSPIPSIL
Description: hKv3.1, hKv3.2, hKv3.3, and hKv3.4 were stably expressed in CHO-K1 (Chinese hamster ovary) cells and kept under constant antibiotic selection. For in vitro assays, cells were maintained in appropriate growth medium at 37° C. and 5% CO2 in a humidified incubator.
hKv3.X expressing cells were plated in T-25 flasks for 3-4 days at 37° C. (no selection antibiotic) prior to use and grown to 80% confluence. Cells were washed twice with PBS (calcium and magnesium free) and detached with a 5-minute treatment at 37° C. with 2-3 mls of Accutase®. Cells were collected, and flask was washed in CHO-SFM II media (Life Technologies Gibco), centrifuged for 2 minutes at ˜110×g and resuspended to obtain a single cell suspension of ˜2-3×10^6 cells/ml.
The intracellular solution contained the following (in mM): KCl 50, NaCl 10, KF 60, EGTA 20, HEPES 10, adjusted to pH 7.2 with KOH and an osmolarity of 285 mOsmol. Seal enhancer was purchased from Nanion (80 mM NaCl, 3 mM KCl, 10 mM MgCl2, 35 mM CaCl2), 10 mM HEPES, pH7.4, 298 mOsmol. The external solution contained (in mM): NaCl 140, KCl 4, CaCl2) 2, MgCl2 1, HEPES 10, Glucose 5, adjusted to pH7.4 and an osmolarity of 298 mOsmol.
All compounds were initially tested at 10 uM at a final DMSO concentration of 0.33%. Compounds were dissolved in dimethylsulfoxide (DMSO) at a stock concentration of 30 mM. The compound was further diluted 1:10 to give a stock concentration of 3 mM in DMSO. The final assay solution was diluted 1:300 in External solution to give a final concentration of 10 uM. For the DMSO Control Buffer 30 uL of DMSO was added to 10 mL buffer.
All electrophysiological recordings were performed at ambient temperature (21-23° C.) using automated patch clamp (Patchliner, Nanion Technologies GmbH) in the whole-cell configuration.
Cell membrane potentials were held at −80 mV, and currents were evoked by voltage steps (1000 ms duration) from −60 to +60 mV in 10 mV increments. This was performed first with vehicle (0.33% DMSO) and then with 10 uM compound, after a 3-minute incubation period. Data was taken from 4 cells per assay.
The recordings were analysed and selected using peak current amplitude (>100 pA at the −10 mV voltage step) in the absence of compound to eliminate unsuitable cells from analysis. Peak current amplitude was measured and recorded for each voltage step and data was normalised to the maximum current at +60 mV. The normalised Kv3.x currents following addition of the compound were then compared with the currents recorded prior to compound addition (vehicle control). Positive modulation was determined as % potentiation at the voltage step of −10 mV=[current (cmpd)/current (veh)]*100−100. % potentiation≥50% was considered acceptable. In addition, voltage shift of the IV curve at V1/2 was measured. V1/2 of ≥−5 mV was also considered acceptable. IV curves were plotted in GraphPad Prism (software version 6.0) and fitted with a Boltzmann equation, where V1/2 is the voltage at half-maximal activation.

hKv3.1 = target: T2, hKv3.1 (Homo sapiens, UniProt P48547); assay: Automated patch clamp electrophysiology (Patchliner), CHO/Kv3.1 cells; type: cell-based; conditions: 10 μM compound, hKv3.1 in CHO-K1, whole-cell; for Kv3.1 Activity at 10 μM Potentiation (%): peak current at voltage step of −10 mV vs vehicle (0.33% DMSO); for Kv3.1 Activity at 10 μM Voltage Shift (mV): voltage shift of the IV curve at V1/2
T2 construct: expressed in transfected cells
T2 sequence (P48547 1-511): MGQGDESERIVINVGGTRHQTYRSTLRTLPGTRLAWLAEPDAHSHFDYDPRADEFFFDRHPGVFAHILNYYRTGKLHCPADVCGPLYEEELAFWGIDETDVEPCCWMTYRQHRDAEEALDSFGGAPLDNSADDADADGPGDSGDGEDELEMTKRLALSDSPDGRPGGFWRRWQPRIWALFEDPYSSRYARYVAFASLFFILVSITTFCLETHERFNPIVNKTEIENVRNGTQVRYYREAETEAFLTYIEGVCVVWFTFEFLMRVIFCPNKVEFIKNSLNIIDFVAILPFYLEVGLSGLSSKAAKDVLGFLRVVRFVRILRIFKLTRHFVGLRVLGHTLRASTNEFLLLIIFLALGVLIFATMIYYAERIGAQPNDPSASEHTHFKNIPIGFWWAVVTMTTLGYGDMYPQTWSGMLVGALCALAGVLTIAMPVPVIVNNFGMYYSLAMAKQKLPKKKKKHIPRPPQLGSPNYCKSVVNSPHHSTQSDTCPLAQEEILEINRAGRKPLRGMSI
Summary of the method: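 Whole-cell automated patch clamp on CHO-K1 stably expressing hKv3.1 or hKv3.2, 21-23 °C, held at −80 mV with 1000 ms steps from −60 to +60 mV. Compound at 10 uM final (0.33% DMSO) after 3-min incubation versus vehicle, 4 cells; % potentiation at −10 mV and Boltzmann-fitted V1/2 shift.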

SMILES | activation at 10 µM (hKv3.2) | Kv3.2 Activity at 10 μM Voltage Shift (mV) (hKv3.2) | Kv3.1 Activity at 10 μM Potentiation (%) (hKv3.1) | Kv3.1 Activity at 10 μM Voltage Shift (mV) (hKv3.1)
COc1cc(Oc2nccc(N3C(=O)NC(C)(C)C3=O)n2)ccc1C(F)(F)F [Example 65, 3-[2-[3-methoxy-4-(trifluoromethyl)-phenoxy]pyrimidin-4-yl]-5,5-dimethyl-imidazolidine-2,4-dione] | 35% | −2.8 mV | 32% | −2.7 mV
COc1cc(Oc2nccc(N3C(=O)NC4(CCCCC4)C3=O)n2)ccc1C [Example 74, 3-[2-(3-methoxy-4-methyl-phenoxy)pyrimidin-4-yl]-1,3-diazaspiro[4.5]decane-2,4-dione] | 12% | −1.6 mV | 41% | −3.8 mV
